Key:
Assay in all cases: relative viability (nuclei count vs DMSO), 5 days (fraction); higher = more cells survive
[1] = compound: CN1CCN(c2ccc3nc(-c4c(N)c5c(F)cccc5[nH]c4=O)[nH]c3c2)CC1 [Dovitinib]
How it was run: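 In 1536-well plates, lung cancer cell lines rested overnight at 37 °C before five library-drug doses (not always all listed), √10 apart, were pinned onto vehicle-anchored plates. Nuclei were counted with MetaXpress from 4× Hoechst images taken after 5 days without medium change. Viability compares treated-well with vehicle-well nuclei as a median over plates, and plates needed control CV below 25% plus at least one doubling to pass.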

[2] = compound: CN1CCN(c2ccc3nc(-c4c(N)c5c(F)cccc5[nH]c4=O)[nH]c3c2)CC1 [Dovitinib] + CC(=O)Nc1cccc(-n2c(=O)n(C3CC3)c(=O)c3c(Nc4ccc(I)cc4F)n(C)c(=O)c(C)c32)c1 [Trametinib] (partner 0.02 µM)
How it was run: (§1)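 Dosing by pin tool came one day after lung cancer cell lines were seeded in 1536-well plates, using either one drug or a fixed anchor-drug dose plus five library-drug doses (not always all listed) in √10 steps. After 5 days, nuclei were counted on 4× images. Relative viability is treated-well nuclei count divided by vehicle-well nuclei count, and values are medians of duplicate plates.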

[3] = compound: CN1CCN(c2ccc3nc(-c4c(N)c5c(F)cccc5[nH]c4=O)[nH]c3c2)CC1 [Dovitinib] + Cc1cc(Nc2cc(N3CCN(C)CC3)nc(Sc3ccc(NC(=O)C4CC4)cc3)n2)n[nH]1 [Tozasertib] (partner 0.1 µM)
How it was run: as §1

[4] = compound: CN1CCN(c2ccc3nc(-c4c(N)c5c(F)cccc5[nH]c4=O)[nH]c3c2)CC1 [Dovitinib] + NC(=O)Nc1cc(-c2cccc(F)c2)sc1C(=O)N[C@H]1CCCNC1 [AZD7762] (partner 0.2 µM)
How it was run: as §1

Row | Cell Line | relative viability ([1]; 0.02 µM) | relative viability ([1]; 0.06325 µM) | relative viability ([1]; 0.2 µM) | relative viability ([1]; 0.6325 µM) | relative viability ([1]; 2 µM) | relative viability ([2]; first compound 0.02 µM) | relative viability ([2]; first compound 0.06325 µM) | relative viability ([2]; first compound 0.2 µM) | relative viability ([2]; first compound 0.6325 µM) | relative viability ([2]; first compound 2 µM) | relative viability ([3]; first compound 0.02 µM) | relative viability ([3]; first compound 0.06325 µM) | relative viability ([3]; first compound 0.2 µM) | relative viability ([3]; first compound 0.6325 µM) | relative viability ([3]; first compound 2 µM) | relative viability ([4]; first compound 0.02 µM) | relative viability ([4]; first compound 0.06325 µM) | relative viability ([4]; first compound 0.2 µM) | relative viability ([4]; first compound 0.6325 µM) | relative viability ([4]; first compound 2 µM)
1 | HCC-15 | 1.05 | 0.961 | 1.07 | 1.03 | 1 | 0.434 | 0.342 | 0.369 | 0.341 | 0.377 | 0.349 | 0.439 | 0.416 | 0.36 | 0.441 | 1.05 | 1.17 | 1.1 | 1.19 | 1.32
2 | NCI-H647 | 0.957 | 0.991 | 1.04 | 0.991 | 0.949 | 0.456 | 0.49 | 0.435 | 0.399 | 0.494 | 0.297 | 0.317 | 0.452 | 0.279 | 0.315 | 0.42 | 0.404 | 0.493 | 0.522 | 0.398
3 | NCI-H1651 | 0.986 | 0.999 | 1.03 | 1.06 | 0.963 | 0.852 | 0.809 | 0.816 | 0.81 | 0.857 | 0.61 | 0.65 | 0.691 | 0.682 | 0.733 | 0.45 | 0.507 | 0.505 | 0.466 | 0.429
4 | NCI-H1734 | 0.928 | 0.974 | 0.934 | 0.963 | 0.984 | 0.652 | 0.68 | 0.762 | 0.651 | 0.642 | 0.287 | 0.279 | 0.264 | 0.223 | 0.288 | 0.532 | 0.505 | 0.475 | 0.583 | 0.71
5 | NCI-H3122 | 0.947 | 0.963 | 0.955 | 0.966 | 0.999 | 0.217 | 0.226 | 0.231 | 0.234 | 0.248 | 0.37 | 0.368 | 0.488 | 0.406 | 0.415 | 0.926 | 1.02 | 0.995 | 0.925 | 0.93
6 | CAL-12T | 1.07 | 1.02 | 1.02 | 0.99 | 1.1 | 0.491 | 0.34 | 0.413 | 0.36 | 0.371 | 0.28 | 0.3 | 0.341 | 0.262 | 0.285 | 0.648 | 0.664 | 0.558 | 0.659 | 0.505
7 | HCC-78 | 1.02 | 0.809 | 1.05 | 1.04 | 0.952 | 0.643 | 0.663 | 0.762 | 0.813 | 0.746 | 0.712 | 0.404 | 0.544 | 0.464 | 0.576 | 0.71 | 0.481 | 0.674 | 0.699 | 0.489
8 | NCI-H2085 | 1 | 1.01 | 1.03 | 1.02 | 0.985 | 0.534 | 0.628 | 0.599 | 0.528 | 0.627 | 0.83 | 0.871 | 0.851 | 0.824 | 0.84 | 1.07 | 1.13 | 1.04 | 0.998 | 1.04
